Experimental data: US20140066411A1, “PHARMACEUTICAL COMPOSITIONS FOR EXTENDED RELEASE OF AZO-BONDED 5-AMINOSALICYLIC ACID COMPOSITIONS” (Depomed, Inc., priority 2012, published 2014)

Test: Dissolving of olsalazine in dissolution media
Assay type: physicochemical
Procedure: Formulation 4 tablets were also made using pharmaceutical grade olsalazine in a micronized form in order to test the effects of drug particle size on tablet manufacturing and the ensuing release profiles. In vitro release profiles were evaluated for Formulation 4 tablets made as described in Example 1 and for tablets made using the same formula and process except with micronized olsalazine.

For olsalazine, the dissolving in media (pH 4.5 acetate buffer) was “did not completely dissolve” and the dissolving in media (pH 7.5 phosphate buffer) was “dissolves easily”.
